Results from ChEMBL document CHEMBL5380853, “Lead Optimization of Androgen Receptor-HSP27 Disrupting Agents in Glioblastoma” (J Med Chem, 2023).
Calls of active or inactive are those of the source. The calls are words filed in the database; no cut-off is given here.

Key:
U-87 MG = test: Growth inhibition of AR-overexpressing human U87 cells measured after 48 hrs by MTT assay; format: functional, cell-based, U-87MG ATCC
T98G [1] = test: Growth inhibition of AR-overexpressing human T98G cells measured after 48 hrs by MTT assay; format: functional, cell-based
T98G [2] = test: Down regulation of androgen receptor activity in AR-overexpressing human T98G cells at 100 nM measured after 12 hrs by Western blotting analysis; format: functional, cell-based
[3] = Apparent half life in mouse plasma at 20 mg/kg, ip measured for 24 hrs by LC-MS/MS analysis; format: ADME, organism-based; conditions: plasma

Row | SMILES | IC50 (U-87 MG) | half-life [3] | IC50 (T98G [1]) | Activity (T98G [2])
1 | COc1ccc(OC)c(COc2cc(NC(=O)c3cc(C(F)(F)F)cc(C(F)(F)F)c3)ccc2NS(C)(=O)=O)c1 | 2650 nM | – | 1040 nM | –
2 | COc1ccc(OC)c(COc2cc(NC(=O)c3ccc(Br)cc3)ccc2NS(C)(=O)=O)c1 | 155 nM | – | 148 nM | –
3 | COc1ccc(OC)c(COc2cc(NC(=O)c3ccc(Cl)c([N+](=O)[O-])c3)ccc2NS(C)(=O)=O)c1 | > 10000 nM | – | 570 nM | –
4 | COc1ccc(OC)c(COc2cc(NC(=O)c3ccc(C(F)(F)F)cc3C(F)(F)F)ccc2NS(C)(=O)=O)c1 | 1710 nM | – | 2360 nM | –
5 | COc1ccc(OC)c(COc2cc(NC(=O)c3ccc(I)cc3)ccc2NS(C)(=O)=O)c1 | 46 nM | – | 48 nM | –
6 | COc1ccc(OC)c(COc2cc(NC(=O)c3cccs3)ccc2NS(C)(=O)=O)c1 | > 10000 nM | – | 3430 nM | Active
7 | COc1ccc(OC)c(COc2cc(NC(=O)c3ccc(C)c([N+](=O)[O-])c3)ccc2NS(C)(=O)=O)c1 | 2630 nM | – | 3690 nM | –
8 | COc1ccc(OC)c(COc2cc(NC(=O)OCCOCCOCCOC(=O)Nc3ccc(NS(C)(=O)=O)c(OCc4cc(OC)ccc4OC)c3)ccc2NS(C)(=O)=O)c1 | > 10000 nM | – | 5470 nM | –
9 | COc1ccc(OC)c(COc2cc(NC(=O)CCCC(=O)Nc3ccc(NS(C)(=O)=O)c(OCc4cc(OC)ccc4OC)c3)ccc2NS(C)(=O)=O)c1 | > 10000 nM | – | > 10000 nM | Active
10 | CCc1ccc(C(=O)Nc2ccc(NS(C)(=O)=O)c(OCc3cc(OC)ccc3OC)c2)cc1 | 1870 nM | – | 3850 nM | –
11 | COc1ccc(OC)c(COc2cc(NC(=O)COCC(=O)Nc3ccc(NS(C)(=O)=O)c(OCc4cc(OC)ccc4OC)c3)ccc2NS(C)(=O)=O)c1 | > 10000 nM | – | > 10000 nM | –
12 | COc1ccc(OC)c(COc2cc(NC(=O)c3ccc(-c4ccccc4)cc3)ccc2NS(C)(=O)=O)c1 | 6910 nM | – | 455 nM | –
13 | COc1ccc(OC)c(COc2cc(NC(=O)c3ccc(SC)cc3)ccc2NS(C)(=O)=O)c1 | 92 nM | – | 29 nM | Active
14 | COc1ccc(OC)c(COc2cc(NC(=O)c3ccc([N+](=O)[O-])cc3)ccc2NS(C)(=O)=O)c1 | > 10000 nM | – | 1190 nM | Active
15 | COc1ccc(C(=O)Nc2ccc(NS(C)(=O)=O)c(OCc3cc(OC)ccc3OC)c2)cc1 | – | 1.5 h | – | –
16 | CCCCCC(=O)Nc1ccc(NS(C)(=O)=O)c(OCc2cc(OC)ccc2OC)c1 | 2040 nM | – | 1190 nM | –
17 | COc1ccc(OC)c(COc2cc(NC(=O)c3ccc(N(C)C)cc3)ccc2NS(C)(=O)=O)c1 | > 10000 nM | – | 1910 nM | –
18 | COc1ccc(OC)c(COc2cc(NC(=O)c3cc(Cl)cc(Cl)c3)ccc2NS(C)(=O)=O)c1 | 150 nM | – | 97 nM | –
19 | COc1ccc(OC)c(COc2cc(NC(=O)c3ccc(C(F)(F)F)cc3)ccc2NS(C)(=O)=O)c1 | 2080 nM | – | > 10000 nM | –
20 | COc1ccc(OC)c(COc2cc(NC(=O)c3ccc(OC)c(OC)c3)ccc2NS(C)(=O)=O)c1 | 220 nM | – | 90 nM | –
21 | COc1ccc(OC)c(COc2cc(NC(=O)c3cc(OC)c(OC)c(OC)c3)ccc2NS(C)(=O)=O)c1 | 3370 nM | – | 218 nM | –
22 | COc1ccc(OC)c(COc2cc(NC(=O)OCCOC(=O)Nc3ccc(NS(C)(=O)=O)c(OCc4cc(OC)ccc4OC)c3)ccc2NS(C)(=O)=O)c1 | 5230 nM | – | 2280 nM | –
23 | COc1ccc(OC)c(COc2cc(NC(=O)c3ccc(C(F)(F)F)c(F)c3)ccc2NS(C)(=O)=O)c1 | 1500 nM | – | 4770 nM | –
24 | COc1ccc(OC)c(COc2cc(NC(=O)c3ccno3)ccc2NS(C)(=O)=O)c1 | > 10000 nM | – | 3960 nM | Active
25 | COc1ccc(OC)c(COc2cc(NC(=O)c3ccc(C#N)cc3)ccc2NS(C)(=O)=O)c1 | 2880 nM | – | 790 nM | –
26 | COc1ccc(OC)c(COc2cc(NC(=O)c3ccc(NC(=O)COCC(=O)Nc4ccc(C(=O)Nc5ccc(NS(C)(=O)=O)c(OCc6cc(OC)ccc6OC)c5)cc4)cc3)ccc2NS(C)(=O)=O)c1 | > 10000 nM | – | > 10000 nM | –
27 | COc1ccc(OC)c(COc2cc(NC(=O)c3ccc(OC(F)(F)F)cc3)ccc2NS(C)(=O)=O)c1 | 2490 nM | – | 899 nM | Active

The next lines start with results.

Row | IC50 (U-87 MG) | half-life [3] | SMILES | IC50 (T98G [1]) | Activity (T98G [2])
28 | 3830 nM | – | CCOc1cccc(C(=O)Nc2ccc(NS(C)(=O)=O)c(OCc3cc(OC)ccc3OC)c2)c1 | 38.4 nM | –
29 | 476 nM | – | COc1ccc(OC)c(COc2cc(NC(=O)c3ccc(Cl)c(Cl)c3)ccc2NS(C)(=O)=O)c1 | 2380 nM | –
30 | 2040 nM | – | COc1ccc(OC)c(COc2cc(NC(=O)c3cccc([N+](=O)[O-])c3)ccc2NS(C)(=O)=O)c1 | 5070 nM | –
31 | 1190 nM | – | COc1ccc(OC)c(COc2cc(NC(=O)c3ccccc3C)ccc2NS(C)(=O)=O)c1 | 306 nM | Active
32 | 91 nM | – | COc1ccc(OC)c(COc2cc(NC(=O)c3ccc(C)cc3)ccc2NS(C)(=O)=O)c1 | 213 nM | –
33 | 1890 nM | – | COc1ccc(OC)c(COc2cc(NC(=O)c3cccc(C#N)c3)ccc2NS(C)(=O)=O)c1 | 5030 nM | –
34 | 210 nM | – | COc1ccc(OC)c(COc2cc(NC(=O)c3cccc(I)c3)ccc2NS(C)(=O)=O)c1 | 130 nM | –
35 | 208 nM | – | COc1ccc(OC)c(COc2cc(NC(=O)c3ccc(Cl)cc3)ccc2NS(C)(=O)=O)c1 | 77 nM | –
36 | 998 nM | – | COc1ccc(OC)c(COc2cc(NC(=O)c3cccc(C(F)(F)F)c3)ccc2NS(C)(=O)=O)c1 | 423 nM | –
37 | 8310 nM | – | COc1cccc(C(=O)Nc2ccc(NS(C)(=O)=O)c(OCc3cc(OC)ccc3OC)c2)c1 | 220 nM | –
38 | > 10000 nM | – | COc1ccc(OC)c(COc2cc(NC(=O)c3cccc(Cl)c3)ccc2NS(C)(=O)=O)c1 | 65 nM | –
39 | 2060 nM | – | COc1ccc(OC)c(COc2cc(NC(=O)c3ccc(N)cc3)ccc2NS(C)(=O)=O)c1 | 3610 nM | –
40 | 530 nM | – | COc1ccc(OC)c(COc2cc(NC(=O)c3cccc(Br)c3)ccc2NS(C)(=O)=O)c1 | 2670 nM | Active
41 | > 10000 nM | – | COc1ccc(OC)c(COc2cc(NC(=O)c3cccc(C)c3)ccc2NS(C)(=O)=O)c1 | 422 nM | –
